According to patent publication US20080255206A1, “Rxr Agonists and Antagonists, Alone or in Combination with Ppar Ligands, in the Treatment of Metabolic and Cardiovascular Diseases” (priority 2005, published 2008):

Legend:
[1] = target: T1, PPARγ/RXRα Heterodimer (Homo sapiens, UniProt P19793); experiment: PPARγ/RXRα heterodimer activation (transactivation) assay; type: cell-based
T1 construct: co-transfected with plasmids expressing the full length RXR heteropartner receptor; expressed in transfected cells
T1 sequence (P19793 1-462): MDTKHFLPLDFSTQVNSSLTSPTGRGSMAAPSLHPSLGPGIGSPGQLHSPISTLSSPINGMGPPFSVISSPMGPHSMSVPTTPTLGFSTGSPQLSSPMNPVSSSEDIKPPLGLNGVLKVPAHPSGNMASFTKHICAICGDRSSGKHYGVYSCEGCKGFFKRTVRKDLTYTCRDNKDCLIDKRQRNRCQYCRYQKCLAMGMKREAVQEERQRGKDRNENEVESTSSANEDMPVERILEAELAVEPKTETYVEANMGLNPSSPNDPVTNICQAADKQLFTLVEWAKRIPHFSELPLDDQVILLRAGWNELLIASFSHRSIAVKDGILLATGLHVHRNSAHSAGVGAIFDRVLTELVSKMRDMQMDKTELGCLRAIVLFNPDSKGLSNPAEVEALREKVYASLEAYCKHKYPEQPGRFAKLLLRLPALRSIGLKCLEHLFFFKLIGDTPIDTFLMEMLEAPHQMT
T1 sequence (P37231 1-505 partner): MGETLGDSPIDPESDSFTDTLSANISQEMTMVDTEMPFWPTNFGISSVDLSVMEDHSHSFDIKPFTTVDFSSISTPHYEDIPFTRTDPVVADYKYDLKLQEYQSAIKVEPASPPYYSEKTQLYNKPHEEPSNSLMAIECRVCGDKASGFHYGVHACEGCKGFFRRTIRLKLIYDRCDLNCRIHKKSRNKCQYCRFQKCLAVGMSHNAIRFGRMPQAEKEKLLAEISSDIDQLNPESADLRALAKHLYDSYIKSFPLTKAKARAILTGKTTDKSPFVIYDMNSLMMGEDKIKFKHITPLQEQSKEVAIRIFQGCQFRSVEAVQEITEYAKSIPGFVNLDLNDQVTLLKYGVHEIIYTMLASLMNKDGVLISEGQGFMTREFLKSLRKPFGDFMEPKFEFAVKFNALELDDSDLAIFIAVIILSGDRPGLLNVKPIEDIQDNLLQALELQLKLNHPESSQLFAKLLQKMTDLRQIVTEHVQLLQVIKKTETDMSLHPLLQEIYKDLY
Text: (§1) Nuclear hormone receptor (NHR) ligand dependent transcriptional transactivation assay.
Heterodimer reporter assays are potentially more important selection criteria for synthetic agonistic NHR ligands as they embody a more natural situation. Basically plasmids expressing the recombinant full length NHR are co-transfected with plasmids expressing the full length RXR heteropartner receptor and a reporter plasmid containing several copies of the natural responsive elements for the respective NHR driving the luciferase reporter gene.

[2] = target: T2, RXRα Homodimer (Homo sapiens, UniProt P19793); experiment: RXRα homodimer activation (transactivation) assay; type: cell-based
T2 construct: expressed in transfected cells; host or cells: mammalian cells (BHK21, CV1, etc)
T2 sequence (P19793 1-462): T1 sequence (P19793 1-462)
Text: as §1
This secondary in vitro functional assay to characterize hits from the primary ligand binding screens is a GAL4-LBD transactivation assay. The Gal4-LBD protein consists of an in frame fusion of the transcription factor galactose 4 DNA binding domain from S.cerevisiae with the ligand binding domain (LBD) of a particular NHR. Briefly, a plasmid construct expressing the recombinant chimeric receptor is co-transfected into mammalian cells (BHK21, CV1, etc) with a luciferase reporter plasmid containing several copies in tandem of the GAL4 binding sites (promoter recognition elements) upstream from the minimal promoter driving the luciferase gene. The transfected cells are treated with compounds for 12-24 hours, lysates are produced and assayed for luciferase activity and normalized to internal standards such as GH, growth hormone or SEAP, secreted alkaline phosphatase. Ligand binding stabilizes the LBD conformation that recruits endogenous co-factors that mediate eventually the increased transcriptional activity of the luciferase reporter gene. By comparing the activation profile of a reference ligand or a natural ligand, the EC50 values for agonistic activity of a particular ligand can be measured. The extent of activation that can be measured is indicative of a partial, respectively full agonistic activity of a ligand. […]

[3] = target: T3, RXRγ (Homo sapiens, UniProt P48443); experiment: Retinoid binding assay, RXRγ; set-up: made in house; host or cells: E. coli; settings: [3H] 9-cis retinoic acid 20 nM; read-out: Binding Affinity IC50 RXR γ
T3 sequence (P48443 1-463): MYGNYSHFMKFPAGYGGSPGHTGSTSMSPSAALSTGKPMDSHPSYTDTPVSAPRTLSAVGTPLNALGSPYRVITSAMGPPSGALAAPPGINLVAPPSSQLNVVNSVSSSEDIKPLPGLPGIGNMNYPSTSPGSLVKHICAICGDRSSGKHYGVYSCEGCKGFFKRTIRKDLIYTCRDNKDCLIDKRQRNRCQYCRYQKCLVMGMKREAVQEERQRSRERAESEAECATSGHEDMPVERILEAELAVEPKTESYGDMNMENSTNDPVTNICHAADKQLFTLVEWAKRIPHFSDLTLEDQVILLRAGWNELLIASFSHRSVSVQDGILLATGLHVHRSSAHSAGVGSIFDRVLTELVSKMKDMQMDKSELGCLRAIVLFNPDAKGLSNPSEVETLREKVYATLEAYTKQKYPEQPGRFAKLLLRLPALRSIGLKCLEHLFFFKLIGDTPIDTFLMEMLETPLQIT
Text: (§2) The DEF domains of RAR's and the full length RXR's, expressed in E.coli, are used to measure competitive retinoid binding. […] 9-cis retinoic acid (for RXR's), respectively. […] Separation of bound from free radioactivity is achieved by charcoal/dextran (RAR's) or by desalting columns (RXR's). […] Retinoid Activation Assays

[4] = target: T4, RXRα (Homo sapiens, UniProt P19793); experiment: Retinoid binding assay, RXRα; set-up: made in house; host or cells: E. coli; settings: [3H] 9-cis retinoic acid 20 nM; read-out: Binding Affinity IC50 RXR α
T4 sequence (P19793 1-462): T1 sequence (P19793 1-462)
Text: as §2

[5] = target: T5, RXRβ (Homo sapiens, UniProt P28702); experiment: Retinoid activation assay, RXRβ (Schneider SL-3 cells, luciferase reporter); type: cell-based; settings: read-out: Activation EC50 RXR β
T5 construct: Full length RXR cDNA is used for transfection; expressed in transfected cells; host or cells: Schneider SL-3 cells (Drosophila)
T5 sequence (P28702 1-533): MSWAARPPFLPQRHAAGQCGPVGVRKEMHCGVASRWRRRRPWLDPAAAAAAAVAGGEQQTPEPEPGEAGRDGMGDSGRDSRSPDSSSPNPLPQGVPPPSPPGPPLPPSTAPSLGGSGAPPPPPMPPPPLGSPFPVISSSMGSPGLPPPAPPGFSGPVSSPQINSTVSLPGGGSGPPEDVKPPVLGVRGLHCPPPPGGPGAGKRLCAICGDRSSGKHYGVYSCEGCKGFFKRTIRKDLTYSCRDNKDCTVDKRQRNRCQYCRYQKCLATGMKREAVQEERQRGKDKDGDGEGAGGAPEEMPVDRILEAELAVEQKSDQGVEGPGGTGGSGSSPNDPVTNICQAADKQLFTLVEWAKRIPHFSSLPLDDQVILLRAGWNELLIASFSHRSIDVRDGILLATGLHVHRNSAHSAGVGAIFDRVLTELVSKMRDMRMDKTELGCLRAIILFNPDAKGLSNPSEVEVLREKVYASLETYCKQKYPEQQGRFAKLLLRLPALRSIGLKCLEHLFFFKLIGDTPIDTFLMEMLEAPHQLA
Method: (§3) Full length RXR cDNA is used for transfection. As reporter system, the luciferase gene is used in a construct with three copies of a RXR response element from rat CRBP gene, (formerly RARE from betaRAR gene), fused to alcoholdehydrogenase gene promoter in the plasmid pGL2-basic. Schneider SL-3 cells from Drosophila are transiently transfected 3-4 h before the experiment by the Ca-phosphate-DNA coprecipitation method. […] At the end of the incubation, the cell supernatants are assayed for luciferase activity. Results are given as EC50 (nM), the concentration leading to half-maximal activation.

[6] = target: T3, RXRγ; experiment: Retinoid activation assay, RXRγ (Schneider SL-3 cells, luciferase reporter); type: cell-based; settings: read-out: Activation EC50 RXR γ
Method: as §3

[7] = target: T4, RXRα; experiment: Retinoid activation assay, RXRα (Schneider SL-3 cells, luciferase reporter); type: cell-based; settings: read-out: Activation EC50 RXR α
Method: as §3

[8] = target: T6, RARγ (Homo sapiens, UniProt P13631); experiment: Retinoid binding assay, RARγ; settings: read-out: Binding Affinity IC50 RAR γ
T6 construct: The DEF domains of RAR's and the full length RXR's, expressed in E.coli; made in house; host or cells: E. coli
T6 sequence (P13631 185-419 limits assumed): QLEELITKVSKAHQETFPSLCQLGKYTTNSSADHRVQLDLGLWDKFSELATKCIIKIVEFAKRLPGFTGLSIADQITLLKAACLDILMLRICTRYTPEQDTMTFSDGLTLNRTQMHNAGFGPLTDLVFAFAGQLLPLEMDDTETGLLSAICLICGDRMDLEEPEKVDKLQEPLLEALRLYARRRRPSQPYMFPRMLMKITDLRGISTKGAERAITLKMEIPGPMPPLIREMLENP
Text: as §2

[9] = target: T7, RARβ (Homo sapiens, UniProt P10826); experiment: Retinoid binding assay, RARβ; set-up: The DEF domains of RAR's and the full length RXR's, expressed in E.coli; made in house; host or cells: E. coli; settings: read-out: Binding Affinity IC50 RAR β
T7 sequence (P10826 183-417 limits assumed): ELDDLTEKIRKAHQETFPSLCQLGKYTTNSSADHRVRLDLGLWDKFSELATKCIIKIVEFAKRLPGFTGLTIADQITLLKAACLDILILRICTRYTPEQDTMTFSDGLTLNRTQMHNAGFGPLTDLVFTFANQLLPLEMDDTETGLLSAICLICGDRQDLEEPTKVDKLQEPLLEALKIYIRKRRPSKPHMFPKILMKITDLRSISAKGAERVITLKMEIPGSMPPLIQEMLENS
Text: as §2

[10] = target: T8, RARα (Homo sapiens, UniProt P10276); experiment: Retinoid binding assay, RARα; set-up: The DEF domains of RAR's and the full length RXR's, expressed in E.coli; made in house; host or cells: E. coli; settings: read-out: Binding Affinity IC50 RAR α
T8 sequence (P10276 183-417 limits assumed): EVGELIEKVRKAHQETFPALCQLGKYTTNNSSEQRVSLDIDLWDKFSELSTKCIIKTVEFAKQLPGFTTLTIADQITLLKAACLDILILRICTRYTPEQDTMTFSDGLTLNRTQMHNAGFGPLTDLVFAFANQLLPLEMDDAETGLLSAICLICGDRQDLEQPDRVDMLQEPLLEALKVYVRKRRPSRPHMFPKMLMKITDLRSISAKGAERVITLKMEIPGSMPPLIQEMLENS
Text: as §2

| EC50 [1] [nM] | EC50 [2] [nM] | IC50 [3] [nM] | IC50 [4] [nM] | EC50 [5] [nM] | EC50 [6] [nM] | EC50 [7] [nM] | IC50 [8] [nM] | IC50 [9] [nM] | IC50 [10] [nM] | Structure (SMILES) |
| --- | --- | --- | --- | --- | --- | --- | --- | --- | --- | --- |
| 6 | 2.6 | 122 | 110 | 28 | 65 | 2.6 |  |  |  | CC(/C=C/[C@@H]1C[C@@H]1c1ccc2c(c1)C(C)(C)CCC2(C)C)=C\C(=O)O (stereo in doubt) [Compound 10, (2E,4E)-3-Methyl-5-[(1S,2S)-2-(5,5,8,8-tetramethyl-5,6,7,8-tetrahydro-naphthalen-2-yl)-cyclopropyl]-penta-2,4-dienoic acid] |
| 10 | 2 | 56 | 65 | 17 | 37 | 2.1 |  |  |  | CCc1cc2c(cc1\C(C)=C/C=C/C(C)=C/C(=O)O)CCCC2C (racemic) [Compound 11, (2E,4E,6Z)-(RS)-7-(3-Ethyl-5-methyl-5,6,7,8-tetrahydro-naphthalen-2-yl)-3-methyl-octa-2,4,6-trienoic acid] |
| > 30 | > 10000 | 700 | 300 | > 10000 | > 10000 | > 10000 |  |  |  | CCCOc1cc2c(cc1[C@@H]1C[C@@H]1/C=C/C(C)=C/C(=O)O)C(C)(C)CCC2(C)C (racemic) [Compound 22, (2E,4E)-3-Methyl-5-[(1RS,2RS)-2-(5,5,8,8-tetramethyl-3-propoxy-5,6,7,8-tetrahydro-naphthalen-2-yl)-cyclopropyl]-penta-2,4-dienoic acid] |
|  |  | 68 |  | > 10000 | > 10000 |  | 2800 | 3500 | 3100 | CCCOc1cc2c(cc1\C(C)=C/C=C/C(C)=C/C(=O)O)C(C)(C)CCC2(C)C [Compound 23, (2E,4E,6Z)-3-Methyl-7-(5,5,8,8-tetramethyl-3-propoxy-5,6,7,8-tetrahydro-naphthalen-2-yl)-octa-2,4,6-trienoic acid] |
